Assay results published in patent publication US11072588B2, “Barbituric acid derivatives comprising cationic and lipophilic groups” (UNIVERSITETET I TROMSØ—NORGES ARKTISKE UNIVERSITET, priority 2017, dated 2021).
≈ marks a conversion by molar mass, not a printed value. Where two headings read alike, the source gives them in different places.

Legend:
[1] = test system: E. coli 50639799; assay: MIC, multi-resistant clinical isolate; assay type: cell-based, Escherichia coli; settings: for MIC: Escherichia coli, read-out: Antimicrobial activity (MIC); for selectivity index (EC50/MIC): RBC EC50 / MIC
Procedure: (§1) Working solutions of the test derivatives were prepared with up to 100% DMSO and stored at −20° C. If necessary, the solutions were heated to 40-80° C. before testing to facilitate complete dissolution. Double-distilled water was used in all dilutions prepared. […] A microdilution susceptibility test was used for MIC determination according to Clinical and Laboratory Standards Institute, “Methods for Dilution Antimicrobial Sisceptibility Tests for Bacteria That Graw Aerobically”, Approved Standard M07-A9, edition 2012, with modifications as described by Igumnova et al (Bioorg Med Chem, 2016, 24 (22), 5884-5894).
(§2) Briefly, the bacterial inoculum was adjusted to approximately 2.5-3×10^4 cells/mL in Mueller-Hinton broth (MHB, Difco Laboratories, USA), and incubated in a ratio of 1:1 with test derivatives in polystyrene 96-well flat-bottom microplates (NUNC, Roskilde, Denmark). Positive growth control (without test derivatives) and negative control (without bacteria) were included. The reference antibiotic was oxytetracycline hydrochloride (Sigma Aldrich, Saint Louis, Mo., USA). The microplates were incubated in an EnVision microplate reader (Perkin-Elmer, Turku, Finland) placed in an incubator set to 35° C. for 48 h. The MIC value was defined as the lowest concentration of derivative resulting in no bacterial growth as determined by OD600 measurement. All derivatives were tested in three parallels.
(§3) The MIC was determined as explained above with some exceptions; working solutions of test derivatives were prepared from concentrated DMSO stocks stored at room temperature, the density of the bacterial inoculum was increased 40× to 1-1.2×10^6 cells/mL, enterococci were incubated in Brain Heart Infusion broth (BHIB, Difco Laboratories, USA), the microplates were incubated for 24 h, and the derivatives were tested in four parallels.

[2] = test system: E. coli 50739822; assay: MIC, multi-resistant clinical isolate; assay type: cell-based, Escherichia coli; settings: for MIC: Escherichia coli, read-out: Antimicrobial activity (MIC); for selectivity index (EC50/MIC): RBC EC50 / MIC
Procedure: as §1, §2, §3

[3] = test system: E. coli 50857972; assay: MIC, multi-resistant clinical isolate; assay type: cell-based, Escherichia coli; settings: for MIC: Escherichia coli, read-out: Antimicrobial activity (MIC); for selectivity index (EC50/MIC): RBC EC50 / MIC
Procedure: as §1, §2, §3

[4] = test system: E. coli 50579417; assay: MIC, multi-resistant clinical isolate; assay type: cell-based, Escherichia coli; settings: for MIC: Escherichia coli, read-out: Antimicrobial activity (MIC); for selectivity index (EC50/MIC): RBC EC50 / MIC
Procedure: as §1, §2, §3

[5] = test system: E. coli 50676002; assay: MIC, multi-resistant clinical isolate; assay type: cell-based, Escherichia coli; settings: for MIC: Escherichia coli, 50676002, read-out: Antimicrobial activity (MIC); for selectivity index (EC50/MIC): RBC EC50 / MIC, E. coli 50676002
Procedure: as §1, §2, §3

[6] = test system: P. aeruginosa 50692520; assay: MIC, multi-resistant clinical isolate; assay type: cell-based, Pseudomonas aeruginosa; settings: for MIC: Pseudomonas aeruginosa, read-out: Antimicrobial activity (MIC); for selectivity index (EC50/MIC): RBC EC50 / MIC
Procedure: as §1, §2, §3

[7] = test system: P. aeruginosa K34-7; assay: MIC, multi-resistant clinical isolate; assay type: cell-based, Pseudomonas aeruginosa; settings: for MIC: Pseudomonas aeruginosa, K347, read-out: Antimicrobial activity (MIC); for selectivity index (EC50/MIC): RBC EC50 / MIC, P. aeruginosa K34-7
Procedure: as §1, §2, §3

[8] = test system: P. aeruginosa K44-24; assay: MIC, multi-resistant clinical isolate; assay type: cell-based, Pseudomonas aeruginosa; settings: for MIC: Pseudomonas aeruginosa, K4424, read-out: Antimicrobial activity (MIC)
Procedure: as §1, §2, §3

[9] = test system: S. aureus strain WIS; assay: MIC, multi-resistant clinical isolate; assay type: cell-based, Staphylococcus aureus; settings: for selectivity index (EC50/MIC): RBC EC50 / MIC, S. aureus strain WIS; for MIC: Staphylococcus aureus, read-out: Antimicrobial activity (MIC)
Procedure: as §1, §2, §3

[10] = test system: S. aureus IHT 99040; assay: MIC, multi-resistant clinical isolate; assay type: cell-based, Staphylococcus aureus; settings: for selectivity index (EC50/MIC): RBC EC50 / MIC; for MIC: Staphylococcus aureus, IHT99040, read-out: Antimicrobial activity (MIC)
Procedure: as §1, §2, §3

[11] = test system: S. aureus strain 85/2082; assay: MIC, multi-resistant clinical isolate; assay type: cell-based, Staphylococcus aureus; settings: for selectivity index (EC50/MIC): RBC EC50 / MIC, S. aureus strain 85/2082; for MIC: Staphylococcus aureus, 85/2082, read-out: Antimicrobial activity (MIC)
Procedure: as §1, §2, §3

[12] = test system: S. aureus N315; assay: MIC, multi-resistant clinical isolate; assay type: cell-based, Staphylococcus aureus; settings: for selectivity index (EC50/MIC): RBC EC50 / MIC, S. aureus N315; for MIC: Staphylococcus aureus, N315, read-out: Antimicrobial activity (MIC)
Procedure: as §1, §2, §3

[13] = test system: S. aureus NCTC 10442; assay: MIC, multi-resistant clinical isolate; assay type: cell-based, Staphylococcus aureus; settings: for selectivity index (EC50/MIC): RBC EC50 / MIC, S. aureus NCTC 10442; for MIC: Staphylococcus aureus, NCTC10442, read-out: Antimicrobial activity (MIC)
Procedure: as §1, §2, §3

[14] = test system: panel of 30 multi-resistant clinical isolates of Gram-positive and Gram-negative bacteria; assay: MIC screening, ranges over the panel of clinical isolates; assay type: cell-based
Procedure: as §1, §2, §3

[15] = test system: human metastatic melanoma (A2058, ATCC CRL-11147) cells; assay: Anti-cancer activity against A2058 cells; assay type: cell-based; settings: A2058, read-out: Anti-cancer IC50
Procedure: Cytotoxicity of the test compounds was evaluated after 72 hour exposure to human metastatic melanoma (A2058, ATCC CRL-11147) cells.
A2058 cells were grown overnight (2,000 cells/well), and then incubated with the test compounds (range of concentrations) diluted in MEM Earle's supplemented with gentamycin (10 μg/mL), non-essential amino acids (1%), sodium pyruvate (1 mM), L-alanyl-Lglutamine (2 mM), but without FBS (total volume was 100 μl) for […]. Ten μL of CellTiter 96® AQueous One Solution Reagent (Promega, Madison, Wis., USA) was added, and the plates were then further incubated for 1 hour.
Absorbance was measured at 485 nm in a DTX 880 Multimode Detector. Results were calculated as % survival compared to negative (assay media) and positive (Triton X-100; Sigma-Aldrich) controls.

[16] = test system: E. faecium TUH50-22; assay: MIC, multi-resistant clinical isolate; assay type: cell-based, Enterococcus faecium; settings: for MIC: Enterococcus faecium, TUH5022, read-out: Antimicrobial activity (MIC); for selectivity index (EC50/MIC): RBC EC50 / MIC
Procedure: as §1, §2, §3

[17] = test system: E. faecium K36-18; assay: MIC, multi-resistant clinical isolate; assay type: cell-based, Enterococcus faecium; settings: for MIC: Enterococcus faecium, K3618, read-out: Antimicrobial activity (MIC); for selectivity index (EC50/MIC): RBC EC50 / MIC, E. faecium K36-18
Procedure: as §1, §2, §3

[18] = test system: E. faecium 50901530; assay: MIC, multi-resistant clinical isolate; assay type: cell-based, Enterococcus faecium; settings: for MIC: Enterococcus faecium, read-out: Antimicrobial activity (MIC); for selectivity index (EC50/MIC): RBC EC50 / MIC
Procedure: as §1, §2, §3

[19] = test system: E. faecium 50758899; assay: MIC, multi-resistant clinical isolate; assay type: cell-based, Enterococcus faecium; settings: for MIC: Enterococcus faecium, read-out: Antimicrobial activity (MIC); for selectivity index (EC50/MIC): RBC EC50 / MIC
Procedure: as §1, §2, §3

[20] = test system: E. faecium 50673722; assay: MIC, multi-resistant clinical isolate; assay type: cell-based, Enterococcus faecium; settings: for MIC: Enterococcus faecium, read-out: Antimicrobial activity (MIC); for selectivity index (EC50/MIC): RBC EC50 / MIC
Procedure: as §1, §2, §3

Row | Structure (SMILES) | MIC [1] | selectivity index (EC50/MIC) [1] | MIC [2] | selectivity index (EC50/MIC) [2] | MIC [3] | selectivity index (EC50/MIC) [3] | MIC [4] | selectivity index (EC50/MIC) [4] | MIC [5] | selectivity index (EC50/MIC) [5] | MIC [6] | selectivity index (EC50/MIC) [6] | MIC [7] | selectivity index (EC50/MIC) [7] | MIC [8] | selectivity index (EC50/MIC) [9] | MIC [9] | selectivity index (EC50/MIC) [10] | MIC [10] | selectivity index (EC50/MIC) [11] | other results
1 | CC(C)(C)c1cc(CC2(Cc3cc(C(C)(C)C)cc(C(C)(C)C)c3)C(=O)N(CCCCN)C(=O)N(CCCCN)C2=O)cc(C(C)(C)C)c1 [7(iii), 1,3-bis(4-aminobutyl)-5,5-bis(3,5-di-tert-butylbenzyl)-pyrimidin-2,4,6(1H,3H,5H)-trione] | 4 µg/mL (≈ 5.93 µM) | (<1) | 4 µg/mL (≈ 5.93 µM) | (<1) | 4 µg/mL (≈ 5.93 µM) | (<1) | 4 µg/mL (≈ 5.93 µM) | (<1) | 8 µg/mL (≈ 11.9 µM) | (<0.5 | 8 µg/mL (≈ 11.9 µM) | (<0.5) | 8 µg/mL (≈ 11.9 µM) | (<0.5) | 8 µg/mL (≈ 11.9 µM) | (<2) | 2 µg/mL (≈ 2.96 µM) | (<2) | 2 µg/mL (≈ 2.96 µM) | (<2) | selectivity index (EC50/MIC) ([8]; RBC EC50 / MIC): (<0.5); MIC [11]: 2 µg/mL (≈ 2.96 µM); selectivity index (EC50/MIC) [12]: (<2); MIC [12]: 2 µg/mL (≈ 2.96 µM); selectivity index (EC50/MIC) [13]: (<2); MIC [13]: 2 µg/mL (≈ 2.96 µM); MIC ([14]; read-out: MIC values against all the 30 multi-resistant clinical isolates): 2 to 16 µg/mL (≈ 2.96 to 23.7 µM); IC50 [15]: 1 µg/mL (≈ 1.48 µM); MIC [16]: 2 µg/mL (≈ 2.96 µM); selectivity index (EC50/MIC) [16]: (<2); MIC [17]: 2 µg/mL (≈ 2.96 µM); selectivity index (EC50/MIC) [17]: (<2); MIC [18]: 2 µg/mL (≈ 2.96 µM); selectivity index (EC50/MIC) [18]: (<2); MIC [19]: 2 µg/mL (≈ 2.96 µM); selectivity index (EC50/MIC) [19]: (<2); MIC [20]: 2 µg/mL (≈ 2.96 µM); selectivity index (EC50/MIC) [20]: (<2)
2 | NCCCCN1C(=O)N(CCCCN)C(=O)C(Cc2ccc3ccccc3c2)(Cc2ccc3ccccc3c2)C1=O [7(iv), 1,3-bis(4-aminobutyl)-5,5-bis(naphtalen-2-yl-methyl)-pyrimidin-2,4,6(1H,3H,5H)-trione] | 16 µg/mL (≈ 29.1 µM) | (15) | 16 µg/mL (≈ 29.1 µM) | (15) | 16 µg/mL (≈ 29.1 µM) | (15) | 16 µg/mL (≈ 29.1 µM) | (15) | 16 µg/mL (≈ 29.1 µM) | (15) | 32 µg/mL (≈ 58.1 µM) | (8) | 32 µg/mL (≈ 58.1 µM) | (8) | > 32 µg/mL | (30) | 8 µg/mL (≈ 14.5 µM) | (30) | 8 µg/mL (≈ 14.5 µM) | (30) | MIC [11]: 8 µg/mL (≈ 14.5 µM); selectivity index (EC50/MIC) [12]: (30); MIC [12]: 8 µg/mL (≈ 14.5 µM); selectivity index (EC50/MIC) [13]: (30); MIC [13]: 8 µg/mL (≈ 14.5 µM); MIC ([14]; Enterococcus faecium, read-out: MIC values against the Gram-positive isolates of S. aurues and E. faecium): 4 to 16 µg/mL (≈ 7.26 to 29.1 µM); IC50 [15]: 1 µg/mL (≈ 1.82 µM); MIC [16]: 8 µg/mL (≈ 14.5 µM); selectivity index (EC50/MIC) [16]: (30); MIC [17]: 16 µg/mL (≈ 29.1 µM); selectivity index (EC50/MIC) [17]: (15); MIC [18]: 8 µg/mL (≈ 14.5 µM); selectivity index (EC50/MIC) [18]: (30); MIC [19]: 16 µg/mL (≈ 29.1 µM); selectivity index (EC50/MIC) [19]: (15); MIC [20]: 16 µg/mL (≈ 29.1 µM); selectivity index (EC50/MIC) [20]: (15)
